Converted amounts (≈) assume the structure as drawn. Read-outs that look alike come from different tables or passages of the source. Where only a bound is given, the exact number is not on record here.

As a reminder, the IC50 is the concentration that inhibits the measured activity by half. As a reminder, the melting point is the temperature, or range, at which the solid turns liquid. By CC50 is commonly meant the concentration giving 50% cytotoxicity. By GI50 is commonly meant the concentration giving 50% growth inhibition.

The subject of data set [1] is epimastigote forms of the T. cruzi Y strain. Further details: method as in PMID 17015964. As to conditions: cited from earlier work.
Data set [2] concerns chloroquine-resistant Plasmodium falciparum (strain K1). Further details: method as in PMID 15653333. To be noted: cited from earlier work.
For data set [3], the system named is Leishmania donovani axenic amastigotes. Further details: method as in PMID 15653333. To be noted: cited from earlier work.
Data set [4] concerns Leishmania donovani infected macrophage. Further details: method as in PMID 15653333. To be noted: cited from earlier work.
Data set [5] concerns trypomastigote forms of Trypanosoma brucei rhodiense. Further details: method as in PMID 15653333. As to conditions: cited from earlier work.
In data set [6] the test system is trypomastigote forms of the T. cruzi Y strain. Further details: method as in PMID 21570099. As to conditions: cited from earlier work.
The subject of data set [7] is amastigotes forms of the T. cruzi Y strain. Description: In vitro antitrypanosomal activity against amastigotes of moderately drug-resistant T. cruzi Y strain (Giemsa counting in LLC-MK2 cells). Format: cell-based, Trypanosoma cruzi. As to conditions: for IC50: Trypanosoma cruzi, LLC-MK2, amastigotes, after 72 h, 95% confidence limits in parentheses; for SI Y Strain: CC50 of LLC-MK2 divided by IC50 at 72 h.

A short description of data set [8]: Cytotoxicity in murine spleen cells (propidium iodide, flow cytometry). Format: cell-based, Swiss mice (Mus musculus). As to conditions: Swiss, mouse, 95% confidence limits in parentheses. How it is done: The cytotoxicity of DBNs 1–4 was determined using the propidium iodide and trypan blue methodologies. To assess the cytotoxic activity using propidium iodide, mice spleen cells were sown at a concentration of 6.5 × 10^6 cells/mL in a 24-well plate. DBNs 1, 2, 3, 4, and BZN were added at concentrations ranging from 1.95 to 250 µM and incubated for 24 h at 37 °C in a 5% CO2 humidified incubator (Sanyo). After the incubation period, the cells were harvested and incubated with a 10 µg/mL propidium iodide solution (Sigma-Aldrich, St. Louis, MO, USA). The cell acquisition was performed within 15 min using a flow cytometer (BD-FACSCanto™II; BD Biosciences, BR), and cell counting was used to obtain the CC50 (50% cytotoxic concentration).
(In general: In flow cytometry, cells or beads pass a laser one at a time.)

Data set [9] can be described thus: Cytotoxicity in LLC-MK2 cells (trypan blue). It counts as cell-based, Monkey (Macaca mulata). To be noted: rhesus monkey (Macaca mulatta), 95% confidence limits in parentheses. How it is done: To assess the cytotoxic activity of DBNs 1–4 using trypan blue, LLC-MK2 cells were sown at a concentration of 2 × 10^5 cells per well in 96-well plates. DBNs 1, 2, 3, 4, and BZN previously dissolved with DMSO were added to achieve the concentration range of 6.25-100 µM and incubated at 37 °C in a 5% CO2 humidified incubator (Sanyo) for 72 h. Next, the cells were trypsinized for 30 s, and then 10 μL of the supernatant was stained with 10 μL of a 0.4% trypan blue solution (Synth, São Paulo, Brazil). Cell counting was performed using transmitted light microscopy (Nikon) with 40X magnification using a Neubauer’s chamber (Global Glass), with a total of 100 cells being counted, where cellsstained blue were considered non-viable. Cell counting was used to obtain the CC50.

Another data set concerns Erythrocytes. The experiment in a line: Hemolytic activity on defibrinated sheep blood. It counts as cell-based. To be noted: sheep red blood cells, 30 min, 37 °C. How it is done:
The hemolytic activity was determined as described by Kaplum and co-workers with adaptations. Defibrinated sheep blood was diluted in 0.9% saline solution. Neolignans 1, 2, 3, 4, and BZN were solubilized in DMSO (Sigma-Aldrich, St. Louis, MO, USA) and added to microtubes containing red blood cells in concentrations from 6.25 to 100 µM. […] Distilled water was used as a positive control, and a 0.9% saline solution with 0.1% DMSO was used as the negative control.

Data set [10] concerns epimastigote forms of the T. cruzi H6 strain. Further details: method as in PMID 12230115. To be noted: cited from earlier work.
Data set [11] relates to 60 humor tumor cell lines. Further details: method as in PMID 10639289. To be noted: molar drug concentration required for 50% growth inhibition; cited from earlier work.
The mark [12] stands for this setting: value in parentheses, read-out: IC50.

Regarding Eupatemoid-3, the IC50 in data set [1] was 26.3 µg/mL; in data set [1] (setting [12]), 90.9 µM.

Consider `OCC=Cc1ccc2c(c1)C(CO)C(c1ccc(O)cc1)O2` (stereo not drawn) [Compound 9], for which the melting point was in the range of 139 to 140 °C.

For `CCCCOC(=O)C=Cc1cc(O)c2c(c1)C(C(=O)OCCCC)C(c1ccc(O)c(O)c1)O2` (stereo not drawn), the IC50 in data set [2] is reported as 0.43 µg/mL (≈ 0.914 µM); in data set [3], 0.12 µg/mL (≈ 0.255 µM); in [4], 0.19 µg/mL (≈ 0.404 µM); in data set [5] it was 0.29 µg/mL (≈ 0.616 µM).

For the molecule `C/C=C/c1cc(OC)c2c(c1)[C@H](C)[C@@H](c1ccc(O)c(OC)c1)O2` [(-)-licarin], the IC50 in [6] is 23.5 µM.

As to `C/C=C/c1ccc2c(c1)[C@@H](C)[C@H](c1ccc(O)cc1)O2` [conocarpan], the 50% inhibitory concentration (IC50) is 8.0 µg/mL in [1] and 30 µM in data set [1] (setting [12]).

As for `OCCCc1ccc2c(c1)C(CO)C(c1ccc(O)cc1)O2` (stereo not drawn) [Compound 14], the melting point lay within 120 to 121 °C.

`COC(=O)C=Cc1ccc2c(c1)C(C(=O)OC)C(c1ccc(OC(C)=O)cc1)O2` (stereo not drawn) [Compound 4] came in with a melting point of 103 to 105 °C. The half-maximal inhibitory concentration (IC50) in data set [7] is greater than 25 µM. Moreover, in data set [8], the CC50 at 24 h was 51.1 µM. Further, the half-maximal cytotoxic concentration (CC50) at 72 h in data set [9] is 67.5 µM. Moreover, in the data set with Erythrocytes, the “CH50 Erythrocytes” value is greater than 100 µM.

As to `C/C=C/c1cc(OC)c2c(c1)[C@H](C)[C@@H](c1ccc(O)c(OC)c1)O2` [licarin A], the half-inhibitory concentration (IC50) in data set [10] was 123 µM.

As for `O=C(Cn1ccnc1[N+](=O)[O-])NCc1ccccc1` [BZN, benznidazole, reference compound], in data set [7], the “SI Y Strain” value came out at 12.13 and the half-inhibitory concentration (IC50) is 3.56 µM. The cytotoxic concentration (CC50) at 24 h in data set [8] is 1.81 µM. Moreover, in [9], the CC50 at 72 h stood at 43.2 µM.

On to `COC(=O)C=Cc1ccc2c(c1)C(C(=O)OC)C(c1ccc(O)cc1)O2` (mixture of isomers) [Compound 1, (±)-trans-dehydrodicoumarate dimethyl ester], for which, in [7], the “SI Y Strain” value stood at 21.73 and the half-inhibitory concentration (IC50) stood at 3.26 µM. Further, in [8], the cytotoxic concentration (CC50) at 24 h is 49.9 µM. Besides, the CC50 at 72 h in data set [9] stood at 70.9 µM. Besides, the “CH50 Erythrocytes” value in the data set with Erythrocytes is greater than 100 µM.

For the molecule `COC(=O)/C=C/c1ccc2oc(-c3ccc(O)cc3)c(C(=O)OC)c2c1` [Compound 7], the melting point lay within 204 to 206 °C.

On to `COC(=O)CCc1ccc2c(c1)C(C(=O)OC)C(c1ccc(O)cc1)O2` (stereo not drawn) [Compound 12], for which the melting point is 108 to 110 °C.

For `C/C=C/c1cc(OC)c2oc(-c3ccc(O)c(OC)c3)c(C)c2c1` [eupomatenoid-7], the half-inhibitory concentration (IC50) in [10] is 77 µM.

For the molecule `C/C=C/c1cc(OC)c2c(c1)[C@@H](C)[C@H](c1ccc(O)c(OC)c1)O2` [(+)-licarin], in data set [6], the IC50 is 87.7 µM.

Consider `COC(=O)C=Cc1cc(OC)c2c(c1)C(C(=O)OC)C(c1ccc(O)c(OC)c1)O2` (stereo not drawn) [Compound 2], for which the IC50 in data set [7] was greater than 25 µM. Besides, the 50% cytotoxic concentration (CC50) at 24 h in [8] stood at 34.2 µM. For the same molecule, in data set [9], the CC50 at 72 h worked out at 67.6 µM. In addition, in the data set on Erythrocytes, the “CH50 Erythrocytes” value is greater than 100 µM.

In the case of eupomatenoid-5, the values for the IC50 in [1] and in data set [1] (setting [12]) were 7.0 µg/mL and 23.8 µM, respectively.

For the molecule `C/C=C/c1ccc2oc(-c3ccc(O)cc3)c(C)c2c1` [eupomatenoid-6], the half-inhibitory concentration (IC50) in data set [1] is 7.5 µg/mL; in data set [1] (setting [12]), 28.4 µM.

As for `COC(=O)C=Cc1cc(O)c2c(c1)C(C(=O)OC)C(c1ccc(O)c(O)c1)O2` (stereo not drawn) [Compound 3], the IC50 in [7] was greater than 25 µM. Further, in data set [8], the CC50 at 24 h is less than 1.95 µM. In data set [9], the CC50 at 72 h stood at 30.8 µM. In addition, the “CH50 Erythrocytes” value in the data set with Erythrocytes is reported as greater than 100 µM. Further, the GI50 in [11] was 300 nM.

As to (±)-licarin, in data set [6], the IC50 is 127 µM.

For `COC(=O)C=Cc1cc(OC)c2c(c1)C(C(=O)OC)C(c1ccc(OC(=O)c3ccccc3)c(OC)c1)O2` (stereo not drawn) [Compound 11], the melting point lay in the range of 109 to 111 °C.

Values taken from paper PMC10052957, “Exploring Synthetic Dihydrobenzofuran and Benzofuran Neolignans as Antiprotozoal Agents against Trypanosoma cruzi” (Pharmaceutics, 2023).
